Where a name gives a salt, the structure may show the parent alone.
Molecular target: T1, Rat recombinant PDE10A (rPDE10A) (Rattus norvegicus, UniProt Q9QYJ6)
T1 construct: made in house; host or cells: Sf9 insect cells (baculovirus)
T1 sequence (Q9QYJ6 1-794): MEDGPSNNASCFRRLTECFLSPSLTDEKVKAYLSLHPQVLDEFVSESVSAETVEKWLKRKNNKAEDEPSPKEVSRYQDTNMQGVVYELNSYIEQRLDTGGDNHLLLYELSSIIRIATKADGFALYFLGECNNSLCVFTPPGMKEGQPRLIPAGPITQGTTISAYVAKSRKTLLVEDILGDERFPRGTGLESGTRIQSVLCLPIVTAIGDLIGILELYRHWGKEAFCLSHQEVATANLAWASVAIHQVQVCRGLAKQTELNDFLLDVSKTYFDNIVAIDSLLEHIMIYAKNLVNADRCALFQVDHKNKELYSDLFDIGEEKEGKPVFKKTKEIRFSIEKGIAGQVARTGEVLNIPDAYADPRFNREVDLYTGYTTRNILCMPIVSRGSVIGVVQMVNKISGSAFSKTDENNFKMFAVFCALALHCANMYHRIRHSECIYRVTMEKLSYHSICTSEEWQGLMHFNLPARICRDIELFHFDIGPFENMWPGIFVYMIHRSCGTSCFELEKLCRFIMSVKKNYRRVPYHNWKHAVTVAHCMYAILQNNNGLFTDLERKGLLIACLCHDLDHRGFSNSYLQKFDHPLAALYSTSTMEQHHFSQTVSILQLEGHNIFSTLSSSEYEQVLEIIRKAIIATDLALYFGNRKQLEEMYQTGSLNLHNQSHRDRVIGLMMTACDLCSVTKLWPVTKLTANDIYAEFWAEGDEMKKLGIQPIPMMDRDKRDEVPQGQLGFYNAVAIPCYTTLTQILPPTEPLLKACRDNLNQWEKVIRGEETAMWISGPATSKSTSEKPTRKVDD
Experiment: rat PDE10A2-cAMP inhibition, in vitro SPA assay
Assay type: biochemical
Details: 60 nM cAMP substrate
Procedure: Rat recombinant PDE10A (rPDE10A) was expressed in Sf9 cells using a recombinant rPDE10A baculovirus construct. Cells were harvested after 48 h of infection and the rPDE10A protein was purified by metal chelate chromatography on Ni-sepharose 6FF. Tested compounds were dissolved and diluted in 100% DMSO to a concentration 100 fold of the final concentration in the assay. Compound dilutions (0.4 μl) were added in 384 well plates to 20 μl of incubation buffer (50 mM Tris pH 7.8, 8.3 mM MgCl2, 1.7 mM EGTA). 10 μl of rPDE10A enzyme in incubation buffer was added and the reaction was started by addition of 10 μl substrate to a final concentration of 60 nM cAMP and 0.008 μCi 3H-cAMP. The reaction was incubated for 60 minutes at room temperature. […] After sedimentation of the beads during 30 minutes, the radioactivity was measured in a Perkin Elmer Topcount scintillation counter and results were expressed as cpm. For blanc values the enzyme was omitted from the reaction and replaced by incubation buffer. Control values were obtained by addition of a final concentration of 1% DMSO instead of compound.

| SMILES | pIC50 | IC50 [nM] |
| --- | --- | --- |
| Cc1cccc(COc2ccc(-c3nn(CCCF)cc3-c3ccncc3)cc2)n1 [Compound B2, 2-[[4-[1-(3-fluoropropyl)-4-(4-pyridinyl)-1H-pyrazol-3-yl]phenoxy]methyl]-6-methyl-pyridine.hydrochloride] | 7.7 | – |
| Cc1cnc(COc2ccc(-c3nn(CCF)cc3-c3ccncc3)cc2)c(C)c1 [Compound B3, 2-[[4-[1-(2-fluoroethyl)-4-(4-pyridinyl)-1H-pyrazol-3-yl]phenoxy]methyl]-3,5-dimethyl-pyridine.succinate] | – | 1.62 |
| FCCn1cc(-c2ccncc2)c(-c2ccc(OCc3cccc(C(F)(F)F)n3)cc2)n1 [Compound B7, 2-[[4-[1-(2-fluoroethyl)-4-(4-pyridinyl)-1H-pyrazol-3-yl]phenoxy]methyl]-6-(trifluoromethyl)-pyridine] | – | 110 |
| FCCOc1cccnc1COc1ccc(-c2nn(CC(F)(F)F)cc2-c2ccncc2)cc1 [Compound B10, 3-(2-fluoroethoxy)-2-[[4-[4-(4-pyridinyl)-1-(2,2,2-trifluoroethyl)-1H-pyrazol-3-yl]phenoxy]methyl]-pyridine.succinate] | – | 6.31 |
| COc1ccc(COc2ccc(-c3nn(CCCF)cc3-c3ccncc3)cc2)nc1 [Compound B14, 2-[[4-[1-(3-fluoropropyl)-4-(4-pyridinyl)-1H-pyrazol-3-yl]phenoxy]methyl]-5-methoxy-pyridine.0.5 succinate] | – | 14.5 |
| COc1cccnc1COc1ccc(-c2nn(CCF)cc2-c2ccncc2)cc1 [Compound B16, 2-[[4-[1-(2-fluoroethyl)-4-(4-pyridinyl)-1H-pyrazol-3-yl]phenoxy]methyl]-3-methoxy-pyridine.succinate] | – | 3.72 |
| FCCOc1cccnc1COc1ccc(-c2nn(CCF)cc2-c2ccncc2)cc1 [Compound B17, 3-(2-fluoroethoxy)-2-[[4-[1-(2-fluoroethyl)-4-(4-pyridinyl)-1H-pyrazol-3-yl]phenoxy]methyl]pyridine.succinate] | – | 3.8 |
| FCCn1cc(-c2ccncc2)c(-c2ccc(OCc3ncccc3F)cc2)n1 [Compound B18, 3-fluoro-2-[[4-[1-(2-fluoroethyl)-4-(4-pyridinyl)-1H-pyrazol-3-yl]phenoxy]methyl]-pyridine.1.2 succinate] | – | 16.2 |
| N#Cc1ccc(COc2ccc(-c3nn(CCF)cc3-c3ccncc3)cc2)nc1 [Compound B21, 6-[[4-[1-(2-fluoroethyl)-4-(4-pyridinyl)-1H-pyrazol-3-yl]phenoxy]methyl]-3-pyridinecarbonitrile] | 7.1 | – |
| FCCn1cc(-c2ccncc2)c(-c2ccc(OCc3ccc(C4CC4)cn3)cc2)n1 [Compound B23, 5-cyclopropyl-2-[[4-[1-(2-fluoroethyl)-4-(4-pyridinyl)-1H-pyrazol-3-yl]phenoxy]methyl]-pyridine] | – | 34.7 |
| COc1cccc(COc2ccc(-c3nn(CCF)cc3-c3ccncc3)cc2)n1 [Compound B24, 2-[[4-[1-(2-fluoroethyl)-4-(4-pyridinyl)-1H-pyrazol-3-yl]phenoxy]methyl]-6-methoxy-pyridine.succinate] | – | 2.95 |
| CCOc1cccc(COc2ccc(-c3nn(CCF)cc3-c3ccncc3)cc2)n1 [Compound B25, 2-ethoxy-6-[[4-[1-(2-fluoroethyl)-4-(4-pyridinyl)-1H-pyrazol-3-yl]phenoxy]methyl]-pyridine.succinate] | – | 20.9 |
| Cc1cnc(COc2ccc(-c3nn(CCF)cc3-c3ccncc3)cc2)c(C)c1C [Compound B28, 2-[[4-[1-(2-fluoroethyl)-4-(4-pyridinyl)-1H-pyrazol-3-yl]phenoxy]methyl]-3,4,5-trimethyl-pyridine.succinate] | – | 4.37 |

Next, values leading:

| pIC50 | IC50 [nM] | SMILES |
| --- | --- | --- |
| 8.6 | – | Cc1cccc(COc2ccc(-c3nn(CCF)cc3-c3ccncc3)cc2)n1 [Compound B1, 2-[[4-[1-(2-fluoroethyl)-4-(4-pyridinyl)-1H-pyrazol-3-yl]phenoxy]methyl]-6-methyl-pyridine.dihydrochloride] |
| – | 9.77 | FCCn1cc(-c2ccncc2)c(-c2ccc(OCc3cccc(Br)n3)cc2)n1 [Compound B6, 2-bromo-6-[[4-[1-(2-fluoroethyl)-4-(4-pyridinyl)-1H-pyrazol-3-yl]phenoxy]methyl]-pyridine.0.75 succinate] |
| – | 33.1 | FCCn1cc(-c2ccncc2)c(-c2ccc(OCc3cccc(C4CC4)n3)cc2)n1 [Compound B8, 2-Cyclopropyl-6-[[4-[1-(2-fluoroethyl)-4-(4-pyridinyl)-1H-pyrazol-3-yl]phenoxy]methyl]-pyridine.succinate] |
| – | 107 | FCCOc1ccc(COc2ccc(-c3nn(CC(F)(F)F)cc3-c3ccncc3)cc2)nc1 [Compound B11, 5-(2-fluoroethoxy)-2-[[4-[4-(4-pyridinyl)-1-(2,2,2-trifluoroethyl)-1H-pyrazol-3-yl]phenoxy]methyl]-pyridine] |
| – | 13.8 | FCCCn1cc(-c2ccncc2)c(-c2ccc(OCc3ncccc3OCCF)cc2)n1 [Compound B13, 3-(2-fluoroethoxy)-2-[[4-[1-(3-fluoropropyl)-4-(4-pyridinyl)-1H-pyrazol-3-yl]phenoxy]methyl]pyridine.succinate] |

Tested on: not given
Experiment: not given
Details: not given

| SMILES | melting point [°C] |
| --- | --- |
| Cc1cccc(COc2ccc(-c3nn(CCCF)cc3-c3ccncc3)cc2)n1 (as salt: hydrochloride) [Compound B2, 2-[[4-[1-(3-fluoropropyl)-4-(4-pyridinyl)-1H-pyrazol-3-yl]phenoxy]methyl]-6-methyl-pyridine.hydrochloride] | 106.51 |
| FCCn1cc(-c2ccncc2)c(-c2ccc(OCc3cccc(Br)n3)cc2)n1 (as salt: succinate) [Compound B6, 2-bromo-6-[[4-[1-(2-fluoroethyl)-4-(4-pyridinyl)-1H-pyrazol-3-yl]phenoxy]methyl]-pyridine.0.75 succinate] | 108.78 |
| FCCOc1cccnc1COc1ccc(-c2nn(CC(F)(F)F)cc2-c2ccncc2)cc1 (as salt: succinate) [Compound B10, 3-(2-fluoroethoxy)-2-[[4-[4-(4-pyridinyl)-1-(2,2,2-trifluoroethyl)-1H-pyrazol-3-yl]phenoxy]methyl]-pyridine.succinate] | 140.72 |
| FCCCn1cc(-c2ccncc2)c(-c2ccc(OCc3ncccc3OCCF)cc2)n1 (as salt: succinate) [Compound B13, 3-(2-fluoroethoxy)-2-[[4-[1-(3-fluoropropyl)-4-(4-pyridinyl)-1H-pyrazol-3-yl]phenoxy]methyl]pyridine.succinate] | 118.38 |

Other lines, results leading:

| melting point [°C] | SMILES |
| --- | --- |
| 227.22 | Cc1cccc(COc2ccc(-c3nn(CCF)cc3-c3ccncc3)cc2)n1 (as salt: hydrochloride) [Compound B1, 2-[[4-[1-(2-fluoroethyl)-4-(4-pyridinyl)-1H-pyrazol-3-yl]phenoxy]methyl]-6-methyl-pyridine.dihydrochloride] |
| 91.25 | FCCn1cc(-c2ccncc2)c(-c2ccc(OCc3cccc(C4CC4)n3)cc2)n1 (as salt: succinate) [Compound B8, 2-Cyclopropyl-6-[[4-[1-(2-fluoroethyl)-4-(4-pyridinyl)-1H-pyrazol-3-yl]phenoxy]methyl]-pyridine.succinate] |
| 126.64 | COc1ccc(COc2ccc(-c3nn(CCCF)cc3-c3ccncc3)cc2)nc1 (as salt: succinate) [Compound B14, 2-[[4-[1-(3-fluoropropyl)-4-(4-pyridinyl)-1H-pyrazol-3-yl]phenoxy]methyl]-5-methoxy-pyridine.0.5 succinate] |
